Measured values taken from patent publication US20230331652A1, “TRANS-CYCLOOCTENES WITH HIGH REACTIVITY AND FAVORABLE PHYSIOCHEMICAL PROPERTIES” (University of Delaware, priority 2020, published 2023).

How the values were obtained:
HeLa cells = experiment: TAMRA-TCO comparative washout assay; format: cell-based; conditions: 5 μM, 30 min incubation
From the text: While TCO-derivatives offer rapid labeling kinetics, a consideration for labeling by fluorophore-tagged TCOs has been the background fluorescence due to non-covalent cellular binding that can be ameliorated only by extended washout times. More hydrophilic oxo- and dioxo-trans-cyclooctenes with backbone oxygens offer improvements, but are difficult to synthesize and, for dioxo-TCO, display reduced Diels-Alder kinetics. As shown in FIGS. 5A-5C, the fluorescent conjugates TAM RA-TCO, TAMRA-oxo-TCO and TAMRA-a-TCO were prepared and compared their cellular washout times to unconjugated TAMRA. Thus, HeLa cells were incubated for 30 min with TAMRA-dyes, and cells were initially washed three times with DPBS, and then cell media was exchanged after 10, 40 and 120 minutes. After each wash, cells were imaged live by fluorescence microscopy with illumination at 531 nm and fixed-intensity across all samples. Widefield images of the cells after 3 washes are shown in FIG. 5B; images after the earlier and later washings are shown in FIG. 8. Background fluorescence was quantified by dividing total fluorescence by the number of cells in each image (FIG. 5C).
HeLa cells were seeded at 5×10^3 cells per well in a poly-L-lysine (0.1 mg/mL) coated 48-well plate and allowed to grow for 48 hours in Dulbecco's modified eagle medium (DMEM, Life Technologies) supplemented with 5% FBS (Life Technologies), 1 mM L-glutamine, and 1% penicillin/streptomycin (Life Technologies). Cells were then incubated with media containing 5 μM of TAMRA-TCO, TAMRA-oxo-TCO, or TAMRA-a-TCO 12 (1 mM stock solutions in DMSO, diluted twice into media) for 30 mins at 37° C. All wells were washed three times with DPBS before adding fresh media. Cells were imaged after 2 DPBS washes and again after the 3rd DPBS wash, then incubated for additional time intervals: 10 minutes, 40 minutes, and 2 hour. At each time point, the media was removed from the designated wells and replaced with fresh media before imaging. Images were taken with an EVOS M7000 and all images were taken with the same laser power and gain. Fluorescence intensity was calculated for each sample in 3 replicates using ImageJ and the fluorescence data was normalized with the cell count of each image.

[1] = Stability in phosphate buffered D2O, pD=7.4 (33 mM) by quantitative 1H NMR; format: physicochemical
Description: (§1) Phosphate buffered D2O (pD=7.4) was prepared by combining anhydrous sodium dihydrogen phosphate (NaH2PO4, 77.1 mg) and anhydrous disodium hydrogen phosphate (Na2HPO4, 204.4 mg) with 20 mL of D2O to make a 0.1 M solution. The pD was measured on a Fisher Scientific AB15 Plus pH meter and pH values were converted to pD by adding 0.4 units. The pD was adjusted to 7.4 with DCI (35 wt. % in D2O) and NaOD (40 wt. % in D2O) as necessary.
(§2) A solution of 14 (4.3 mg, 25 μmol) in phosphate buffered D2O (750 μL, pD=7.4) was monitored by quantitative ^1H NMR on a 600 MHz instrument to observe the decomposition of the trans-isomer over time. Methyl tert-butyl ether (3.0 μL, 26 μmol) was used as an internal standard. After 1 day, 90% of 14 remained and after 5 days, 39% remained (FIG. 6B). The results were plotted using Prism software (Version 8.00, GraphPad Software Inc). A waterfall plot of the ^1H NMR spectra is provided.
as §2, with “4a (3.2” for “14 (4.3”, “85%” for “90%”, “4a” for “14”, “35%” for “39%”

[2] = Stability in methanol-d4 (35 mM) by quantitative 1H NMR; format: physicochemical; conditions: 35 mM in methanol-d4, after 7 days
Description: as §2, with “(4.5” for “(4.3”, “26” for “25”, “methanol-d4” for “phosphate buffered D2O”, “μL)” for “μL, pD=7.4)”, “(3.1” for “(3.0”, “After 1 day, 90% of 14 remained and after 5 days, 39% remained (FIG. 6B).” left out
as §2, with “4a (3.3” for “14 (4.3”, “26” for “25”, “methanol-d4” for “phosphate buffered D2O”, “μL)” for “μL, pD=7.4)”, “(3.1” for “(3.0”, “After 1 day, 90% of 14 remained and after 5 days, 39% remained (FIG. 6B).” left out

[3] = Stability with mercaptoethanol (25 mM) in phosphate buffered D2O, pD=7.4; format: physicochemical; conditions: 25 mM mercaptoethanol
Description: as §1
TCO 14 (3.1 mg, 18 μmol) in a solution of mercaptoethanol in phosphate buffered D2O (720 μL, 18 μmol, 25 mM, pD=7.4) was monitored by quantitative 1H NMR on a 600 MHz instrument to observe the decomposition of the trans-isomer over time. Methyl tert-butyl ether (2.1 μL, 18 μmol) was used as an internal standard. After 4 hours, 93% of 14 remained and 49% of 14 remained after 20 hours. (FIG. 6C). The results were plotted using Prism software (Version 8.00, GraphPad Software Inc). A waterfall plot of the ^1H NMR spectra is provided.
TCO 4a (2.3 mg, 18 μmol) in a solution of mercaptoethanol in phosphate buffered D2O (720 μL, 18 μmol, 25 mM, pD=7.4) was monitored by quantitative 1H NMR on a 600 MHz instrument to observe the decomposition of the trans-isomer over time. Methyl tert-butyl ether (2.1 μL, 18 μmol) was used as an internal standard. After 4 hours, 89% of 4a and 49% of 4a remained after 20 hours. (FIG. 6C). The results were plotted using Prism software (Version 8.00, GraphPad Software Inc). A waterfall plot of the ^1H NMR spectra is provided.

[4] = Stopped-flow kinetics of the Diels-Alder reaction with tetrazine 20; format: physicochemical; conditions: for Kobs: 95:5 PBS/MeOH, in s-1 (unit assumed)
Description: The kinetics for the reaction of a-TCO derivative 14 toward a 3,6-dipyridyl-s-tetrazinyl succinamic acid derivative 20 were measured by stopped flow kinetics at 25° C. in 95:5 PBS:MeOH (FIG. 4A).
Stopped-flow kinetics measurements were performed on a SX18MV-R stopped-flow spectrophotometer (Applied Photophysics Ltd.) with temperature control (25° C.).
The reaction between 5-ax-hydroxy-5-eq-(2-hydroxyethyl)-trans-cyclooctene 14 and 3,6-dipyridyl-s-tetrazine-mono-succinamic acid 20 was monitored by a SX18MV-R stopped-flow spectrophotometer (Applied Photophysics Ltd.) at 325 nm by measuring the exponential decay of tetrazine under pseudo-first order conditions. Solutions of 14 (0.98, 1.46, 1.95, and 2.63 mM in 9:1 PBS/MeOH) and tetrazine (0.1 mM in PBS) were mixed in the stopped-flow spectrophotometer in equal volumes resulting in final concentrations of 0.49 mM, 0.73 mM, 0.97 mM, and 1.31 mM of 14 and 0.05 mM of tetrazine in 95:5 PBS/MeOH. Three independent samples were prepared for each TCO concentration and measurements were taken in duplicate every 0.1 ms for 0.1 sat 25° C. The observed rates kobs for each run were determined by nonlinear regression analysis of the data points using Prism software (Version 8.00, GraphPad Software Inc). The average kobs values were plotted against the concentrations of 14 to obtain the bimolecular rate constant k2 from the slope of the plot.
The observed rates (kobs) of 5-ax-hydroxy-5-eq-(2-hydroxyethyl)-trans-cyclooctene 14 (10-30 equivalents) and 3,6-dipyridyl-s-tetrazine-mono-succinamic acid 20 were measured using stopped-flow kinetics. The final concentrations of 14 after injection were (A) 0.49 mM, (B) 0.73 mM, (C) 0.97 mM, and (D) 1.31 mM and the concentration of tetrazine was 0.05 mM in 95:5 PBS/MeOH at 25° C. Duplicate measurements were obtained for three independent samples for each concentration of 14.
The reaction between 5-ax-hydroxy-trans-cyclooctene 4a and 3,6-dipyridyl-s-tetrazine-mono-succinamic acid 20 was monitored by a SX18MV-R stopped-flow spectrophotometer (Applied Photophysics Ltd.) at 325 nm by measuring the exponential decay of tetrazine under pseudo-first order conditions. Solutions of 4a (100, 200, 300, and 400 μM in 9:1 PBS/MeOH) and tetrazine (20 μM in PBS) were mixed in the stopped-flow […] 95:5 PBS/MeOH. Three independent samples were prepared for each TCO concentration and measurements were taken in duplicate every 0.1 ms for 0.2 s at 25° C. The observed rates kobs for each run were determined by nonlinear regression analysis of the data points using Prism software (Version 8.00, GraphPad Software Inc). The average kobs values were plotted against the concentrations of 4a to obtain the bimolecular rate constant k2 from the slope of the plot.
The observed rates (kobs) of 5-ax-hydroxy-trans-cyclooctene 4a (5-20 equivalents) and 3,6-dipyridyl-s-tetrazine-mono-succinamic acid 20 were measured using stopped-flow kinetics. […]

SMILES | background fluorescence after 3 washings (HeLa cells; 3 washes with DPBS) | background fluorescence / washout after 2 hours (HeLa cells; media exchanges up to 2 hours) | TCO remaining ([1]; phosphate buffered D2O pD 7.4, 1 day (24 h), room temperature) | TCO remaining ([1]; phosphate buffered D2O pD 7.4, 5 days) | decomposition of the trans-isomer [2] | TCO remaining ([3]; phosphate buffered D2O pD 7.4, 4 hours) | TCO remaining ([3]; phosphate buffered D2O pD 7.4, 20 hours) | Kobs ([4]; A (0.49 mM) of 14, 0.05 mM tetrazine, 25° C.) | Kobs ([4]; B (0.73 mM) of 14, 0.05 mM tetrazine, 25° C.) | Kobs ([4]; C (0.97 mM) of 14, 0.05 mM tetrazine, 25° C.) | Kobs ([4]; D (1.31 mM) of 14, 0.05 mM tetrazine, 25° C.) | reactivity relative to oxo-TCO ([4]; comparison of k2 with oxo-TCO) | reactivity toward 20 relative to 4a ([4]; ratio of k2 versus axial isomer 4a) | reactivity toward 20 relative to 4b ([4]; ratio of k2 versus equatorial isomer 4b) | second-order rate constant k2 ([4]; toward tetrazine 20, stopped flow, 25° C., 95:5 PBS:MeOH)
CN(C)c1ccc2c(-c3ccc(C(=O)NCCCCCNC(=O)OC[C@@H]4CC/C=C/CCO4)cc3C(=O)[O-])c3ccc(=[N+](C)C)cc-3oc2c1 (stereo in doubt) [TAMRA-oxo-TCO, (S,E)-2-(6-(dimethylamino)-3-(dimethyliminio)-3H-xanthen-9-yl)-5-((5-((((3,4,7,8-tetrahydro-2H-oxocin-2-yl)methoxy)carbonyl)amino)pentyl)carbamoyl)benzoate, reference compound] | improved | residual fluorescence |  |  |  |  |  |  |  |  |  |  |  |  | 
OCC[C@]1(O)CC/C=C/CCC1 [Compound 14, 5-ax-Hydroxy-5-eq-(2-hydroxyethyl)-trans-cyclooctene] |  |  | 90% | 39% | no observable decomposition | 93% | 49% | 76.13 | 121.4 | 162.4 | 200.2 | more reactive than oxo-TCO | more than twice as reactive | ~7 times | 150,000±8000 M^−1s^−1
